Source: patent US20230414774A1, “ANTI-CLDN18.2 ANTIBODY, DRUG CONJUGATE, AND PREPARATION METHOD THEREFOR AND USE THEREOF” (CSPC MEGALITH BIOPHARMACEUTICAL CO., LTD., priority 2020, published 2023)

Legend:
[1] = system: human gastric cancer NUGC-4-18.2 xenografts; test: In vivo efficacy, xenograft, cisplatin as reference; design: species or system nude mice; settings: i.v., 6 mg/kg qw×3, day 20
Method: 2) In this experiment, nude mice with human gastric cancer NUGC-4-18.2 xenografts were used. When the tumor volume reached about 120 mm^3 (day 6 after inoculation), 64 animals with bulky xenografts were selected and divided into eight groups (on day 0) with tumor volume balancing among groups. Eight animals in individual groups were intravenously administered 0.9% sodium chloride injection (0.9% INJ NS, vehicle control group), SYJS001-ADC at 1, 2 and 4 mg/kg (qw×3), SYJS001-ADC at 4 and 8 mg/kg (single dose), SYJS001-mAb at 4 mg/kg (qw×3) and Cisplatin at 6 mg/kg (qw×3, once a week for 3 weeks), respectively. Tumor diameters were measured twice a week. Mice were weighed, and data were recorded. Tumor growth was dynamically observed by measuring tumor diameters at different times after dosing. At the end of the experiment on day 20, the mice were asphyxiated with carbon dioxide, and the tumors were peeled and weighed.

[2] = system: human pancreatic cancer Bxpc3-18.2 xenografts; test: In vivo efficacy, xenograft, gemcitabine as reference; design: species or system nude mice; settings: i.v., 50 mg/kg biw×4, day 28
Method: 1) In this experiment, nude mice with human pancreatic cancer Bxpc3-18.2 xenografts were used. When the tumor volume reached about 100 mm^3 (day 39 after inoculation), 48 animals with bulky xenografts were selected and divided into six groups (on day 0) with tumor volume balancing among groups. Eight animals in individual groups were intravenously administered 0.9% sodium chloride injection (0.9% INJ NS, vehicle control group), SYJS001-ADC at 2, 4 and 8 mg/kg (single dose), SYJS001-mAb (SYJS001 nude antibody) at 8 mg/kg (single dose) and Gemcitabine (GEM) at 50 mg/kg (biw×4, twice a week for 4 weeks), respectively. Tumor diameters were measured twice a week. Mice were weighed, and data were recorded. Tumor growth was dynamically observed by measuring tumor diameters at different times after dosing. At the end of the experiment on day 28, the mice were asphyxiated with carbon dioxide, and the tumors were peeled and weighed.

[3] = target: human CLDN18.2 on cells (human) (UniProt P56856); test: flow cytometry on BxPC3-CLDN18.2 cells, ED50 comparison

N.N.[Cl][Pt][Cl] [Cisplatin]
tumor weight suppression rate [1]: 66.5%

Nc1ccn([C@@H]2O[C@H](CO)[C@@H](O)C2(F)F)c(=O)n1 [Gemcitabine]
tumor weight suppression rate [2]: 51.0%

B1: SYJS001 monoclonal antibody (antibody, human IgG1, kappa, V domains shown)
VH: EVQLSESGGALVQPGESLRLSCAASGFTFSSYAMTWVRQAPGKGLEWVSSLSGSGRSTYYAASIKGRFTISRDNSKNTLYLQMSSLRAEDTAIYYCAKSLSYYHYYFDYWGQGTLVTVSS
VL: DIQLTQSPSFLSASVGDRVPITCRASQDISNYLAWYQQKPGKAPKLLIYSASTLQSGVPSRFSGSGSGTEFTLTISSLQPEDFASYHCQQVKTYPLTFGGGTKVEIKR
fold affinity against IMAB362 [3]: 2 fold
